Laboratory results published in patent US20240150362A1, “Substituted Pyrrolotriazines” (Molecure S.A., priority 2022, published 2024).
Counter-ions that a name gives are not always drawn.

target: T1, full-length USP7 (Homo sapiens, UniProt Q93009); assay: Enzymatic assay to determine % inhibition of USP7 activity at 1 μM test compound (Ubiquitin-Rhodamine 110 cleavage); format: biochemical; conditions: 1 μM of the test compound; given where IC50 has not been determined yet; mean of two repetitions
T1 construct: A 45 μl reaction volume containing full-length USP7 (0.5-1.0 nM)
T1 sequence (Q93009 whole entry): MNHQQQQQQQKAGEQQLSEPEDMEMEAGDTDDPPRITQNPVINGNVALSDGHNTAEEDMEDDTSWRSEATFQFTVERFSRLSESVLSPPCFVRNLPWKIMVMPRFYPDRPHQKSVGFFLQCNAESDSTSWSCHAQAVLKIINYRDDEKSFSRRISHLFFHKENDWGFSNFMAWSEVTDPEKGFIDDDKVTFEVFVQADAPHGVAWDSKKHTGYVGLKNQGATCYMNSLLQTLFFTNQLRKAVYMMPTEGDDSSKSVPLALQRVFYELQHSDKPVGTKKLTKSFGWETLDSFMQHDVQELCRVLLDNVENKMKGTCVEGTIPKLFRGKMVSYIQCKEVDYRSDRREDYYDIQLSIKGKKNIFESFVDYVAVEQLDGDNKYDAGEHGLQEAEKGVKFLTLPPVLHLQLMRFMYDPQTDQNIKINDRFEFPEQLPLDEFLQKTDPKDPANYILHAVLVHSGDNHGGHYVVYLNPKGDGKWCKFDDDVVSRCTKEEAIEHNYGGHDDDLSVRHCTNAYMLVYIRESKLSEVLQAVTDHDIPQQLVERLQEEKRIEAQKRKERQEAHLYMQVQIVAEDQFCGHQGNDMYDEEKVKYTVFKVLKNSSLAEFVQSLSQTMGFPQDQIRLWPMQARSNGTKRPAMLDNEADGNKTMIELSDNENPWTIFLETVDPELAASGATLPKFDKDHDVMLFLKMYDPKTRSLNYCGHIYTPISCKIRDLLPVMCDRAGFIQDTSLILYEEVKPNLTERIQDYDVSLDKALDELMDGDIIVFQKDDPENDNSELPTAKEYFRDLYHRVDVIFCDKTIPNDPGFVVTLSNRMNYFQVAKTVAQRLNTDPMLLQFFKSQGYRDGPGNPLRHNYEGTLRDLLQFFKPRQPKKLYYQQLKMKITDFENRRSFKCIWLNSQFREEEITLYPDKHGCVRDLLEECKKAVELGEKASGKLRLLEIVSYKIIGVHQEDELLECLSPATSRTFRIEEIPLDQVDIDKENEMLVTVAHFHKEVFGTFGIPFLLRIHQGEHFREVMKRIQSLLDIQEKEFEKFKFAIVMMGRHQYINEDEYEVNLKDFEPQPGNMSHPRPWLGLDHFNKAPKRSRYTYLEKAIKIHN
Protocol: Enzymatic Assay to Determine % Value of Inhibition […] Activity at 1 μM […]
A 45 μl reaction volume containing full-length USP7 (0.5-1.0 nM) in 50 mM HEPES pH 7.5, 150 mM NaCl, 2 mM DTT, 1 mg/ml BSA and 0.05% Tween20 (DUB assay buffer) was assembled in wells of 96 well half area black flat bottom plates. All test compounds were first dissolved to 30 mM stocks in DMSO and subsequently introduced to enzyme 15 min after USP7 incubation with DTT at room temperature. The final concentration of tested compounds was 1 μM. The enzymatic reaction was started by adding 0.5 μM Ubiquitin-Rhodamine 110 (final concentration) and allowed to proceed for 30-60 min at 25° C., 250 RPM shaking before Rhodamine fluorescence (485 nm excitation/535 nm emission) was measured using Tecan Spark M10 plate reader. Percentage of inhibition at 1 μM was determined by the mean of two repetitions for these concentrations using Microsoft Excel software.

| Structure (SMILES) | inhibition at 1 µM |
| --- | --- |
| Cc1cc(Cl)cc(-c2ncnn3cc(CN4C(=O)C5C(C4=O)C5(C)C)cc23)c1CC1CNC2(CC2)CO1 (stereo not shown) [Example 71, 3-((4-(2-((7-oxa-4-azaspiro[2.5]octan-6-yl)methyl)-5-chloro-3-methylphenyl)pyrrolo[2,1-f][1,2,4]triazin-6-yl)methyl)-6,6-dimethyl-3-azabicyclo[3.1.0]hexane-2,4-dione 2,2,2-trifluoroacetate] | 20 to 49% |
| CC1(C)C2C(=O)N(Cc3cc4c(-c5cc(C(F)(F)F)cc6ccn(CC7(O)CCNCC7)c56)ncnn4c3)C(=O)C21 (stereo not shown) [Example 19, 3-((4-(1-((4-hydroxypiperidin-4-yl)methyl)-5-(trifluoromethyl)-1H-indol-7-yl)pyrrolo[2,1-f][1,2,4]triazin-6-yl)methyl)-6,6-dimethyl-3-azabicyclo[3.1.0]hexane-2,4-dione hydrochloride] | 50 to 70% |
| CC1(C)C2C(=O)N(Cc3cc4c(-c5cc(F)cc6ccn(C[C@@H]7CNCCO7)c56)ncnn4c3)C(=O)C21 (stereo partly drawn) [Example 33, 3-((4-(5-fluoro-1-(((S)-morpholin-2-yl)methyl)-1H-indol-7-yl)pyrrolo[2,1-f][1,2,4]triazin-6-yl)methyl)-6,6-dimethyl-3-azabicyclo[3.1.0]hexane-2,4-dione 2,2,2-trifluoroacetate] | > 70% |
| Cc1cc(Cl)cc(-c2ncnn3cc(C(N)=O)cc23)c1O[C@H]1CCCNC1 [Example 18, (S)-4-(5-chloro-3-methyl-2-(piperidin-3-yloxy)phenyl)pyrrolo[2,1-f][1,2,4]triazine-6-carboxamide hydrochloride] | < 20% |
| Cc1cc(Cl)cc(-c2ncnn3cc(CN4C(=O)C5C(C4=O)C5(C)C)cc23)c1OCCN (stereo not shown) [Example 9, 3-((4-(2-(2-aminoethoxy)-5-chloro-3-methylphenyl)pyrrolo[2,1-f][1,2,4]triazin-6-yl)methyl)-6,6-dimethyl-3-azabicyclo[3.1.0]hexane-2,4-dione hydrochloride] | 50 to 70% |
| Cc1cc(Cl)cc(-c2ncnn3cc(CN4C(=O)C5C(C4=O)C5(C)C)cc23)c1CC1(C)CNCC(C)(C)O1 (stereo not shown) [Example 72, 3-((4-(5-chloro-3-methyl-2-((2,6,6-trimethylmorpholin-2-yl)methyl)phenyl)pyrrolo[2,1-f][1,2,4]triazin-6-yl)methyl)-6,6-dimethyl-3-azabicyclo[3.1.0]hexane-2,4-dione hydrochloride] | > 70% |
| Cc1cc(Cl)cc(-c2ncnn3cc(CN4C(=O)C5C(C4=O)C5(C)C)cc23)c1C(=O)N1C[C@@H](N)[C@@H](C)C1 (stereo partly drawn) [Example 23, 3-((4-(2-((3S,4S)-3-amino-4-methylpyrrolidine-1-carbonyl)-5-chloro-3-methylphenyl)pyrrolo[2,1-f][1,2,4]triazin-6-yl)methyl)-6,6-dimethyl-3-azabicyclo[3.1.0]hexane-2,4-dione 2,2,2-trifluoroacetate] | 50 to 70% |
| Cc1cc(Cl)cc(-c2ncnn3cc(CN4C(=O)C5C(C4=O)C5(C)C)cc23)c1O[C@@H]1CNCC(F)(F)C1 (stereo partly drawn) [Example 28, 3-((4-(5-chloro-2-(((S)-5,5-difluoropiperidin-3-yl)oxy)-3-methylphenyl)pyrrolo[2,1-f][1,2,4]triazin-6-yl)methyl)-6,6-dimethyl-3-azabicyclo[3.1.0]hexane-2,4-dione 2,2,2-trifluoroacetate] | < 20% |
| Cc1cc(Cl)cc(-c2ncnn3cc(CN4C(=O)C5C(C4=O)C5(C)C)cc23)c1OC1CCNCC1 (stereo not shown) [Example 4, 3-((4-(5-chloro-3-methyl-2-(piperidin-4-yloxy)phenyl)pyrrolo[2,1-f][1,2,4]triazin-6-yl)methyl)-6,6-dimethyl-3-azabicyclo[3.1.0]hexane-2,4-dione hydrochloride] | 50 to 70% |
| Cc1cc(Cl)cc(-c2ncnn3cc(CN4C(=O)C5C(C4=O)C5(C)C)cc23)c1CC1CNCC(CF)O1 (stereo not shown) [Example 42, 3-((4-(5-chloro-2-((6-(fluoromethyl)morpholin-2-yl)methyl)-3-methylphenyl)pyrrolo[2,1-f][1,2,4]triazin-6-yl)methyl)-6,6-dimethyl-3-azabicyclo[3.1.0]hexane-2,4-dione hydrochloride] | 50 to 70% |
| Cc1cc(Cl)cc(-c2ncnn3cc(CN4C(=O)C5C(C4=O)C5(C)C)cc23)c1O[C@@H]1CN[C@@H](C)C1 (stereo partly drawn) [Example 20, 3-((4-(5-chloro-3-methyl-2-(((3S,5S)-5-methylpyrrolidin-3-yl)oxy)phenyl)pyrrolo[2,1-f][1,2,4]triazin-6-yl)methyl)-6,6-dimethyl-3-azabicyclo[3.1.0]hexane-2,4-dione hydrochloride] | 20 to 49% |
| CC1(C)C2C(=O)N(Cc3cc4c(-c5cc(Cl)cc6c5N(C5CCNCC5)CCC6)ncnn4c3)C(=O)C21 (stereo not shown) [Example 54, 3-((4-(6-chloro-1-(piperidin-4-yl)-1,2,3,4-tetrahydroquinolin-8-yl)pyrrolo[2,1-f][1,2,4]triazin-6-yl)methyl)-6,6-dimethyl-3-azabicyclo[3.1.0]hexane-2,4-dione hydrochloride] | > 70% |
| Cc1cc(Cl)cc(-c2ncnn3cc(CN4C(=O)C5C(C4=O)C5(C)C)cc23)c1CC1CNCC(F)(F)CO1 (stereo not shown) [Example 38, 3-((4-(5-chloro-2-((6,6-difluoro-1,4-oxazepan-2-yl)methyl)-3-methylphenyl)pyrrolo[2,1-f][1,2,4]triazin-6-yl)methyl)-6,6-dimethyl-3-azabicyclo[3.1.0]hexane-2,4-dione hydrochloride] | < 20% |
| Cc1cc(Cl)cc(-c2ncnn3cc(CN4C(=O)C5C(C4=O)C5(C)C)cc23)c1OC[C@@H]1CCCNC1 (stereo partly drawn) [Example 53, 3-((4-(5-chloro-3-methyl-2-(((R)-piperidin-3-yl)methoxy)phenyl)pyrrolo[2,1-f][1,2,4]triazin-6-yl)methyl)-6,6-dimethyl-3-azabicyclo[3.1.0]hexane-2,4-dione hydrochloride] | 20 to 49% |

Second part, the compound after the results:

| inhibition at 1 µM | Structure (SMILES) |
| --- | --- |
| 20 to 49% | Cc1cc(Cl)cc(-c2ncnn3cc(Cn4c(=O)ccn(C)c4=O)cc23)c1CC1CNC[C@H](C)O1 (stereo partly drawn) [Example 122, 3-((4-(5-chloro-3-methyl-2-(((6S)-6-methylmorpholin-2-yl)methyl)phenyl)pyrrolo[2,1-f][1,2,4]triazin-6-yl)methyl)-1-methylpyrimidine-2,4(1H,3H)-dione dihydrochloride] |
| 50 to 70% | CN[C@H]1CCCN(c2ccc(Cl)cc2-c2ncnn3cc(CN4C(=O)C5C(C4=O)C5(C)C)cc23)C1 (stereo partly drawn) [Example 112, 3-((4-(5-chloro-2-((S)-3-(methylamino)piperidin-1-yl)phenyl)pyrrolo[2,1-f][1,2,4]triazin-6-yl)methyl)-6,6-dimethyl-3-azabicyclo[3.1.0]hexane-2,4-dione hydrochloride] |
| 50 to 70% | CC1(C)C2C(=O)N(Cc3cc4c(-c5cc(Cl)ccc5N5C[C@H]6CCN[C@H]6C5)ncnn4c3)C(=O)C21 (stereo partly drawn) [Example 90, 3-((4-(5-chloro-2-((3aR,6aR)-hexahydropyrrolo[3,4-b]pyrrol-5(1H)-yl)phenyl)pyrrolo[2,1-f][1,2,4]triazin-6-yl)methyl)-6,6-dimethyl-3-azabicyclo[3.1.0]hexane-2,4-dione hydrochloride] |
| 20 to 49% | Cc1cc(Cl)cc(-c2ncnn3cc(Cn4c(=O)ccn(C)c4=O)cc23)c1C[C@H]1CNCCO1 (single isomer, unassigned) [Example 100, hydrochloride] |
| > 70% | CC(C)n1ccc(=O)n(Cc2cc3c(-c4cc(Cl)cc5ccn(CC6(F)CCNCC6)c45)ncnn3c2)c1=O [Example 127, 3-((4-(5-chloro-1-((4-fluoropiperidin-4-yl)methyl)-1H-indol-7-yl)pyrrolo[2,1-f][1,2,4]triazin-6-yl)methyl)-1-isopropylpyrimidine-2,4(1H,3H)-dione hydrochloride] |
| 50 to 70% | Cc1cc(Cl)cc(-c2ncnn3cc(Cn4c(=O)cc[nH]c4=O)cc23)c1CC1CNC[C@H](C)O1 (single isomer, unassigned) [Example 121, dihydrochloride] |
| < 20% | CC1(C)C2C(=O)N(Cc3cc4c(-c5cc(Cl)ccc5N5C[C@@H]6CCN[C@@H]6C5)ncnn4c3)C(=O)C21 (stereo partly drawn) [Example 96, 3-((4-(5-chloro-2-((3aS,6aS)-hexahydropyrrolo[3,4-b]pyrrol-5(1H)-yl)phenyl)pyrrolo[2,1-f][1,2,4]triazin-6-yl)methyl)-6,6-dimethyl-3-azabicyclo[3.1.0]hexane-2,4-dione hydrochloride] |
| > 70% | C[C@H]1CNCC(Cc2c(F)cc(Cl)cc2-c2ncnn3cc(Cn4c(=O)ccn(C)c4=O)cc23)O1 (single isomer, unassigned) [Example 120, hydrochloride] |
| < 20% | Cc1nc(C(F)(F)F)cc(-c2ncnn3cc(Cn4c(=O)ccn(C)c4=O)cc23)c1OC1CCCNC1 (stereo not shown) [Example 129, 1-methyl-3-((4-(2-methyl-3-(piperidin-3-yloxy)-6-(trifluoromethyl)pyridin-4-yl)pyrrolo[2,1-f][1,2,4]triazin-6-yl)methyl)pyrimidine-2,4(1H,3H)-dione hydrochloride] |

same assay, conditions: 1 μM of the test compound; given where IC50 has not been determined yet; mean of two repetitions; hydrochloride, 1 µM

| USP7 % inhibition | Structure (SMILES) |
| --- | --- |
| D* (D*: <20% inhibition) | Cc1cc(Cl)cc(-c2ncnn3cc(CN4C(=O)C5C(C4=O)C5(C)C)cc23)c1OC(C)[C@@H]1CNCCO1.Cl (single isomer, unassigned) [Example 77] |
| B* (B*: 50-70% inhibition) | Cc1cc(Cl)cc(-c2ncnn3cc(CN4C(=O)C5C(C4=O)C5(C)C)cc23)c1OC(C)[C@@H]1CNCCO1.Cl (single isomer, unassigned) [Example 76] |
